Experimental data from patent US20120010072A1 (priority 2009, published 2012).
Where two headings read alike, the source gives them in different places.

How the values were obtained:
Phytophthora infestans = assay type: cell-based; details: 405 nm, 7 days after inoculation, 18° C.
Septoria tritici = details: 0.004 ppm; 405 nm, 7 days after inoculation, 18° C.
[1] = test system: Sugar beet seeds (Beretta); assay: Safener effect of dimethomorph: germination of pelleted sugar beet seeds under cold stress; assay type: in vivo; details: 30 g a.i./U seed pelleting; % of sown seeds; 6 days 13° C. then 5° C.; all seeds also treated with 6 g/U thiram and 14.7 g/U hymexazole
Procedure: Sugar beet seeds (Beretta) were pelleted either with pyraclostrobin alone or with pyraclostrobin in combination with dimethomorph. After sowing, the seeds (200 seeds per treatment, 4 repetitions) were grown for 6 days at 13° C. and then exposed to 5° C. for 7 days. Cultivation was then continued at 20° C. During the whole cultivation period the soil was kept at 20% humidity. 7 and 8 days after sowing (DAS) germination was assessed as % of the number of sown seeds.

Q: CC(C)C1CCC(Cc2ccc(Cl)cc2)C1(O)Cn1cncn1 (stereo not drawn) [Ipconazol] was tested. Which Observed efficacy (Phytophthora infestans; 0.063 ppm) did it give?
A: Its Observed efficacy is 2%.

Q: COC(=O)N(OC)c1ccccc1COc1ccn(-c2ccc(Cl)cc2)n1 [Pyraclostrobin] was tested. Which Observed efficacy (Septoria tritici) did it give?
A: Its Observed efficacy is 49%.

Q: And the “Germination 7 DAS” value [1]?
A: Its value is 16%.

Q: What about the “Germination 8 DAS” value [1] of the same compound?
A: Its value is 27%.

Q: With COc1ccc(C(=CC(=O)N2CCOCC2)c2ccc(Cl)cc2)cc1OC [Dimethomorph] as the compound, how does the Observed efficacy (Phytophthora infestans; 0.25 ppm) read?
A: The Observed efficacy was 51%.

Q: C/C(=N\C#N)N(C)Cc1ccc(Cl)nc1 [Acetamiprid] was tested. Which Observed efficacy (Phytophthora infestans; 0.25 ppm) did it give?
A: Its Observed efficacy is 0%.
